The text below walks through data of article PMC9732821, “Neurotrophic Activity and Its Modulation by Zinc Ion of a Dimeric Peptide Mimicking the Brain-Derived Neurotrophic Factor N-Terminal Region” (ACS Chemical Neuroscience, 2022).

This experiment relates to TrkB-EGFP. The experiment is described as follows: TrkB dimerization, number & brightness (N&B) in living SH-SY5Y cells. The format is cell-based, human. The following applies: 150 ng/mL BDNF or 10 μM d-bdnf, within 30 min; f-EGFP monomeric reference; two independent experiments. The procedure:
Figure 1 Activation of the TrkB receptor by BDNF and its mimetic peptide ligands. (A) Schematic picture of the human TrkB receptor fused to the EGFP construct (hTrkB-EGFP); recombinant human mature BDNF (hBDNF); monomeric peptide, m-bdnf; dimeric peptide, d-bdnf; scrambled s-bdnf. (B) WB showing Tyr phosphorylation (p-Tyr, top) and total TrkB levels (bottom) in SH-SY5Y cells transfected with hTrkB-EGFP in the absence (ctrl) or presence of 10 min stimulation with 150 ng/mL BDNF or 10 μM m-bdnf, d-bdnf, or s-bdnf. Samples were immunoprecipitated (IP) with the anti-GFP antibody before WB. […] (C) Scatter dot plot of ERK (left) and AKT (right) phosphorylation levels detected in differentiated SH-SY5Y cells, after stimulation with the same treatments as in (B). […] (G) Bar graph of mean ± SD ‘B-1’ values retrieved from N&B analysis for all the different conditions measured. […]
The same TrkB-GFP expressing SH-SY5Y cells were used to deeper investigate the mechanism of TrkB activation induced by d-bdnf, using an advanced imaging approach in living cells. We exploited a fluorescence correlation technique, which directly correlates the brightness of each fluorescent pixel of the image to the number of TrkB molecules averagely populating that pixel during the observation time (number & brightness technique—N&B[34],[35]). […]

On to “HSDPARRGELSVC-C-VSLEGRRAPDSH (disulfide) [d-bdnf]”, for which the “TrkB monomer/dimer state at plasma membrane” value is reported as “shift toward the dimeric form”.

B1: brain-derived neurotrophic factor (protein, UniProt P23560 1-247, looked up)
chain: MTILFLTMVISYFGCMKAAPMKEANIRGQGGLAYPGVRTHGTLESVNGPKAGSRGLTSLADTFEHVIEELLDEDQKVRPNEENNKDADLYTSRVMLSSQVPLEPPLLFLLEEYKNYLDAANMSMRVRRHSDPARRGELSVCDSISEWVTAADKKTAVDMSGGTVTVLEKVPVSKGQLKQYFYETKCNPMGYTKEGCRGIDKRHWNSQCRTTQSYVRALTMDSKKRIGWRFIRIDTSCVCTLTIKRGR
modifications: full-length
notes: full-length human BDNF produced recombinantly in Escherichia coli
Take B1: the “TrkB monomer/dimer state at plasma membrane” value is on record as “shift toward the dimeric form”.
